Read-outs that look alike come from different tables or passages of the source. Bounds are passed on as bounds.

The source of these data is patent US5874283A, “Mammalian flap-specific endonuclease” (Harrington; John Joseph, priority 1995, dated 1999).

Test [1] has as its target T1, FEN-1 (flap endonuclease-1) purified from the nuclear fraction of mouse pre-B cell line 1-8 (Mus musculus, UniProt P39749). The following applies: replacement of MgCl2 with 5 mM EDTA.
Description: (§1) FEN-1 was purified from the nuclear fraction of a mouse pre-B cell line. The chromatographic behavior of FEN-1 was monitored using Flap Substrate 1 in the standard FEN-1 endonuclease assay.
The target of test [2] is T1, FEN-1 (flap endonuclease-1) purified from the nuclear fraction of mouse pre-B cell line 1-8. Put plainly: biochemical. The note with it: read-out: % Activity (endonuclease activity, FEN-1 activity versus divalent metal ion).
Description: as §1
Test [3] shares this target. Put plainly: biochemical. The following applies: 0.5 h, read-out: % Activity (exonuclease activity, FEN-1 activity versus divalent metal ion).
Protocol: All purification steps were carried out at 0°-4° C. Six liters of the murine pre-B cell line, 1-8 (Alt et al., 1984), were grown to 2×10^6 cells/ml in RPMI 1640, 10% FBS, 50 μM β-mercaptoethanol (βME), 100 μg/ml penicillin-streptomycin in spinner flasks. Eighteen liters of RPMI 1640 and 100 μg/ml penicillin-streptomycin were then added, and the cells were allowed to grow for an additional 24 h. The cells were harvested at a cell density of 1-1.5×10^6 cells/ml and spun at 1000 g in a Beckman JA-10 rotor for 5 min. The cell pellet was then washed with 500 ml of ice-cold PBS (5 mM NaPi pH 7.4, 137 mM NaCl, 3 mM KCl) supplemented with 1 g/l MgCl2 and pelleted as above. Nuclei were isolated by allowing the cell pellet to swell in 100 ml Buffer A (10 mM HEPES-KOH pH 7.8, 1.5 mM MgCl2, 10 mM KCl, 0.5 mM DTT) for 10 min on ice. The swollen cells were spun for 5 min at 2500 g in a Beckman J6B centrifuge, resuspended in 40 ml Buffer A and homogenized with 20 strokes of the B-pestle in a Dounce homogenizer. The nuclei were collected by centrifugation at 2500 g in a Beckman J6B for 5 min and lysed by adding 40 ml of Buffer B (20 mM EPES-KOH pH 7.8, 0.42M NaCl, 25% glycerol, 1.5 mM MgCl2, 0.2 mM EDTA, 0.5 mM DTT, 0.5 mM PMSF). Nuclear lysis was completed with 20 strokes of the B-pestle in a Dounce homogenizer. […]

T1 sequence (P39749 whole entry): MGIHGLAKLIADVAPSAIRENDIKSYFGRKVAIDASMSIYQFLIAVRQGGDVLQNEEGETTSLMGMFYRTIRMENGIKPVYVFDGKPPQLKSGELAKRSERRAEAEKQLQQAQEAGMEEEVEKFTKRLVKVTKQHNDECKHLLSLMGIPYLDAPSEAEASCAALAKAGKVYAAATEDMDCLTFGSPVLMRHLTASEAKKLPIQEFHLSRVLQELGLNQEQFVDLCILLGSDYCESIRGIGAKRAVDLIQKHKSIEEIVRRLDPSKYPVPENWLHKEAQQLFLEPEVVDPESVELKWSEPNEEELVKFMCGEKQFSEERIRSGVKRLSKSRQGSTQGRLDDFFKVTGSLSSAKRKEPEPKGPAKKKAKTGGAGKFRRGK

Turning to `O=C(O)CN(CCN(CC(=O)O)CC(=O)O)CC(=O)O` [EDTA], the “Inhibition of the flap cleavage reaction” value in test [1] is “completely inhibited”. Also, the activity at 5000 µM is under 1% in test [2] and under 0.5% in test [3].
